Measurements as given in patent US6326014A, “Use of oxamate derivatives as depigmenting agents” (L, Oreal, priority 1997, dated 2001).

System: co-culture of keratinocytes and melanocytes
Experiment: Depigmenting activity: inhibition of melanogenesis in co-culture of keratinocytes and melanocytes
Type: cell-based
Settings: for IC50: keratinocyte/melanocyte co-culture, read-out: IC50 (50% inhibition of melanogenesis)
Experimental: This test corresponds to the one described in patent FR 2,734,825 filed by the Applicant, as well as in the article by R. Schmidt, P. […], Anal. Biochem., 235(2), 113-18, (1996), the entire contents of each of which are hereby incorporated by reference. […] For each test compound, the IC50 value, which corresponds to the micromolar concentration (μM) for which a 50% inhibition of melanogenesis is observed, is determined. Moreover, a class is given to each of these compounds as regards their maximum depigmenting activity: […]

IC50	SMILES	Class (maximum depigmenting activity) (at 50 μM)	Class (maximum depigmenting activity) (at 500 μM)	Class (maximum depigmenting activity) (at 10 μM)
10 µM	CCOC(=O)C(=O)Nc1ccc(O)cc1 [Example 1, Ethyl N-(4-hydroxyphenyl)oxamate]	3 (60 to 100% inhibition of melanogenesis relative to the control (same experiment without test compound))		
500 µM	O=c1cc(CO)occ1O [Kojic acid, reference compound]		2 (30 to 60% inhibition of melanogenesis relative to the control (same experiment without test compound))	
10 µM	O=C(NC[C@H](O)[C@@H](O)[C@H](O)[C@H](O)CO)C(=O)Nc1ccc(O)cc1 [Example 2, N-(4-hydroxyphenyl)-N'-(D-glucamino)oxamide]			2 (30 to 60% inhibition of melanogenesis relative to the control (same experiment without test compound))
